Calls of active or inactive are those of the source. The rule behind the calls is not given here.
Tests used:
[1] = target: T1, Growth factor receptor-bound protein 2 (Homo sapiens, UniProt P62993); assay: Inhibition of Growth factor receptor bound protein 2 SH2 domain in extracellular binding assay
Target sequence in this assay (P62993 whole entry, the tested form may be a part): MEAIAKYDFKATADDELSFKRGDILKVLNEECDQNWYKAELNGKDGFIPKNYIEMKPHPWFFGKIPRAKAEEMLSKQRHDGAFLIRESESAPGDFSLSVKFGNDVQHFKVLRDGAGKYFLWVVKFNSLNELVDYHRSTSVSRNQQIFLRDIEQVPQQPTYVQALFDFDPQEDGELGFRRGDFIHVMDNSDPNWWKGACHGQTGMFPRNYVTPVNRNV

MDA-MB-453 = assay: Inhibition of MDA-MB-453 breast cancer cell proliferation (No inhibition); assay type: functional, cell-based; conditions: Homo sapiens
[2] = target: T1, Growth factor receptor-bound protein 2; assay: Inhibition of growth factor receptor-bound protein 2 SH2 domain binding to erbB-2 in cell-based assay (Not significant)
Target sequence in this assay (P62993 whole entry, looked up, the tested form may be a part): as the sequence (P62993 whole entry, the tested form may be a part) above

Molecule NC(=O)C[C@@H]1NC(=O)C2(CCCCC2)NC(=O)C[C@@H](c2ccc(CP(=O)(O)O)cc2)NC(=O)CCNC1=O has an IC50 [1] greater than 600 µM.

NC(=O)C[C@H](NC(=O)C1(NC(=O)CCc2ccc(CP(=O)(O)O)cc2)CCCCC1)C(N)=O was tested, and the IC50 [1] was 52.5 µM.

For NC(=O)C[C@@H]1NC(=O)C2(CCCCC2)NC(=O)C[C@@H](c2ccc(CP(=O)(O)O)cc2)NC(=O)CCCNC1=O, the IC50 [1] was 47.9 µM.

With NC(=O)C[C@@H]1NC(=O)C2(CCCCC2)NC(=O)C[C@@H](c2ccc(CP(=O)(O)O)cc2)NC(=O)CNC1=O the IC50 [1] was greater than 600 µM.

With NC(=O)C[C@@H]1NC(=O)C2(CCCCC2)NC(=O)C[C@@H](c2ccc(CP(=O)(O)O)cc2)NC(=O)C[C@@H](Cc2cccc3ccccc23)CNC1=O the IC50 [1] was 7.9 µM, the NI (MDA-MB-453) was “inactive” and the NS [2] was “inactive”.

For NC(=O)C[C@@H]1NC(=O)C2(CCCCC2)NC(=O)C[C@@H](c2ccc(CP(=O)(O)O)cc2)/C=C/C[C@@H](Cc2cccc3ccccc23)CNC1=O, the IC50 [1] was 0.026 µM, the NI (MDA-MB-453) was “inactive” and the NS [2] was “inactive”.
